Results reported in patent publication US20050130197A1, “Homogeneous fluorescence polarization assay for high throughput screening” (priority 2003, published 2005).
Read-outs that look alike come from different tables or passages of the source. Where a SMILES comes first, the peptide text is derived from it. Where no end group is shown, it is not given here. [ ]: non-standard residue; d: D form. NMeF = CN[C@@H](Cc1ccccc1)C(=O)O

Tests used:
[1] = molecular target: T1, human NPFF2 receptor membranes (Homo sapiens, UniProt Q9Y5X5); test: In vitro functional FP assay with GDP and GTPγS (GTP binding assay); type: biochemical; settings: one agonist fixed at 2-3×IC50, other ligand varied; 3 μM GDP and 5 μM GTPγS
T1 construct: purchased Euroscreen s.a; (Brussels, Belgium)
T1 sequence (Q9Y5X5 whole entry): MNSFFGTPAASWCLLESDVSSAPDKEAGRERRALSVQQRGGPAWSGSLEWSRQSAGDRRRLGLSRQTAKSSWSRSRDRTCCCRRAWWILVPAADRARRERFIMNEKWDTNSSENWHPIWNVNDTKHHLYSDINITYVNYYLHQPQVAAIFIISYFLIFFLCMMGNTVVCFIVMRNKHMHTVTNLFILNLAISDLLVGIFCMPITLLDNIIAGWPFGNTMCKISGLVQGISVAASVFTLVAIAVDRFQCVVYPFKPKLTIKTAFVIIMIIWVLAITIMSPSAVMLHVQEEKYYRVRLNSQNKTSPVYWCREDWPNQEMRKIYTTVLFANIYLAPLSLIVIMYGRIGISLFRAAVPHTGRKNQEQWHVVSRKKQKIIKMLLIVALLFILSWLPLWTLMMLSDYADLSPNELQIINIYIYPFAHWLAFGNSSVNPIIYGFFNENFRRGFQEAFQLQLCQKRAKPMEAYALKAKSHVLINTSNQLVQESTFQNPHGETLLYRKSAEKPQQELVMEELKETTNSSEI
Description: The binding assay was performed in a final volume of 40 μl as follows: 10 μl of different concentrations of displacing ligand, 10 μl of tracer, and 10 μl of diluted receptor membrane preparation (3.6-4.2 ug protein/well), which were added sequentially. After 15 min, 10 μl of the binding buffer with 3-10 μM GDP and 5-50 μM GTPγS was added. The reaction was incubated at room temperature for 15-120 min.
The concentrations of the other agonist increased from 0.0019 nM to 9.0 μM per well.
Next a combination of an agonist with a fixed concentration and an antagonist with varying concentrations was tested under the same conditions.

human NPFF2 receptor [2] = molecular target: T2, human NPFF2 receptor (Homo sapiens, UniProt Q9Y5X5); test: Fluorescence polarization (FP) competition binding assay, TAMRA-NPFF tracer, 0.1% Pluronic F-127; settings: for Ki: FP competition binding, TAMRA-NPFF tracer, human NPFF2 receptor membrane preparation, means ± S.E. of three separate experiments; for Ki for inhibiting TAMRA-NPFF binding (in words): FP displacement curves; for affinity to the TAMRA-NPFF binding site / binding to NPFF2 receptor: 10 μM, FP assay
T2 construct: purchased Euroscreen s.a; (Brussels, Belgium)
T2 sequence (Q9Y5X5 whole entry): as above
Description: Human NPFF2 receptor membrane homogenates were diluted in a binding buffer (50 mM HEPES buffer, pH 7.4 and various concentrations of detergents) to the membrane concentration required. In general, the binding assay was performed in a final volume of 40 μl: 20 μl of displacing ligand, 10 μl of fluorescent tracer, and 10 μl of diluted receptor membrane preparation (3.6-4.2 ug protein/well depending on the assay), which were added sequentially. The reaction was incubated at room temperature for 0.5-24 h before FP was measured depending on each experiment.
FP binding data were analyzed and fitted using GraphPad Prism® software (GraphPad Software, Inc., San Diego, Calif.). Competitive binding data was fit to a one-site competitive binding equation using nonlinear regression curve fitting. IC50 values were determined by nonlinear regression analysis of the inhibition curves. Data points in the displacement curves and in the graphs of DMSO, nonionic detergents, Chicago Sky Blue 6B and tartrazine consist of an average of 4-6 repetitions. All error bars represent ±1 standard deviation unit of the spread of the data except for displacement curves, where the error bars represent ±SEM. mP is defined by the following equation: mP=1000×(I∥−I⊥)/(I∥+I⊥) where mP=milli-polarization, I∥=parallel component of the emitted light, and I⊥=perpendicular component of the emitted light. Assay precision was assessed by calculating the Z′ value: Z′=1−[(3*σbound)+(3*σdisplaced)/|(mPbound−mPdisplaced)|] where σ is the standard deviation in the signal, mP: the subscript “bound” corresponds to the signal obtained in the absence of a displacing substance; and the subscript “displaced” corresponds to the signal of a completely displaced ligand (Zhang, J-H. et al., J. Biomol. Screen., (1999) 4, 67-73; Banks, P. et al., J. Biomol. Screen., (2002) 7, 111-117). The denominator of the equation calculates the specific binding expressed in the absolute value of mP difference, and the numerator calculates the precision in both bound and displaced signals. Background correction was done after each analysis by subtracting blank parallel and perpendicular intensities from the respective intensities. According to Z′ value model, the Z′ values of above 0.5 indicate excellent assays.

human NPFF2 receptor [3] = molecular target: T2, human NPFF2 receptor; settings: data from J. Biol. Chem. 275: 39324-39331 (2000); read-out: [125I]Ligand Filtration Human Ki (b); cited from earlier work
human NPFF2 receptor [4] = molecular target: T2, human NPFF2 receptor; settings: data from Eur. J. Pharmacol. 451: 245-256 (2002); read-out: [125I]Ligand Filtration Human Ki (c); cited from earlier work

Row | Compound | Ki (human NPFF2 receptor [2]) [nM] | Ki (human NPFF2 receptor [3]) [nM] | Ki (human NPFF2 receptor [4]) [nM] | Ki for inhibiting TAMRA-NPFF binding (in words) (human NPFF2 receptor [2]) | affinity to the TAMRA-NPFF binding site / binding to NPFF2 receptor (human NPFF2 receptor [2]) | also measured
1 | NC(N)=NCCC[C@@H](NC(=O)C(c1ccccc1)c1ccccc1)C(=O)NCc1ccc(O)cc1 [BIBP3226] | 96 ± 13 | 1260 ± 111 | 84 ± 12 | – | – | affinity state in in vitro functional assays [1]: monophasic affinity state
2 | CC(C)C[C@H](NC(=O)[C@H](N)Cc1ccc(O)cc1)C(=O)N(C)[C@@H](Cc1ccccc1)C(=O)N[C@@H](CCC(N)=O)C(=O)N1CCC[C@H]1C(=O)N[C@@H](CCC(N)=O)C(=O)N[C@@H](CCCN=C(N)N)C(=O)N[C@@H](Cc1ccccc1)C(N)=O [[D-Tyr^1(NMe)Phe^3]NPFF, [D-Tyr^1, (N-Me)Phe^3]NPFF] (H-[dY]L[NMeF]QPQRF-NH2) | 0.46 ± 0.05 | – | 0.18 ± 0.04 | – | – | –
3 | CC(C)C[C@H](NC(=O)[C@H](N)Cc1ccc(O)cc1)C(=O)N(C)[C@@H](Cc1ccccc1)C(=O)N[C@@H](CCC(N)=O)C(=O)N1CCC[C@H]1C(=O)N[C@@H](CCC(N)=O)C(=O)N[C@@H](CCCNC(=N)N)C(=O)N[C@@H](Cc1ccccc1)C(N)=O [[D-Tyr^1(NMe)Phe^3]NPFF, [D-Tyr^1, (N-Me)Phe^3]NPFF] (H-[dY]L[NMeF]QPQRF-NH2) | – | – | – | nanomolar range | – | –
4 | COc1cc(CNC(=O)CCCC/C=C/C(C)C)ccc1O [capsaicin] | – | – | – | – | little or no affinity | –
5 | CC(COc1ccccc1)N(CCCl)Cc1ccccc1 (stereo not drawn) [phenoxybenzamine] | – | – | – | – | little or no affinity | –
6 | APSEPHHPGDQATQDQLAQYYSDLYQYITFVTRPRF-NH2 [Frog PP] | – | 40 ± 11 | – | nanomolar range | – | assay window (FIG. 8) (human NPFF2 receptor [2]; 0.1% trifluoroacetic acid added to assay buffer): 100 mP
